Measurements taken from ChEMBL document CHEMBL1201862, “PubChem BioAssay data set” (2004).
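Each compound was tested at five concentrations against cells in 96-well plates for 48 hours. GI50: concentration for 50% inhibition of growth.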 The source made the active and inactive calls. Rule as the data show it: active = GI50 up to about 1.1 µM and inactive = higher.

What was measured:
Experiment in all cases: NCI anticancer screen, dose series, 48 h
KM-20L2 = system: KM-20L2
NCI-H522 = system: NCI-H522
XF498 = system: XF498
OVCAR-5 = system: OVCAR-5
UACC-62 = system: UACC-62
HCT-15 = system: HCT-15
COLO 205 = system: COLO 205
SF-295 = system: SF-295
SN12C = system: SN12C
NCI-H23 = system: NCI-H23
HCT-116 = system: HCT-116
RXF 393 = system: RXF 393
EKVX = system: EKVX
DLD-1 = system: DLD-1
UO-31 = system: UO-31
HT-29 = system: HT-29
HL-60 = system: HL-60
CAKI-1 = system: CAKI-1
CCRF-CEM = system: CCRF-CEM
Malme-3M = system: Malme-3M
786-0 = system: 786-0
DMS-114 = system: DMS-114
SF-268 = system: SF-268
UACC-257 = system: UACC-257
LOX IMVI = system: LOX IMVI
A549 = system: A549
SF-539 = system: SF-539
A498 = system: A498
SK-MEL-5 = system: SK-MEL-5
SR = system: SR
SNB-78 = system: SNB-78
U-251 = system: U-251
DMS-273 = system: DMS-273
NCI-H460 = system: NCI-H460
SNB-19 = system: SNB-19
MOLT-4 = system: MOLT-4
TK-10 = system: TK-10
M19-MEL = system: M19-MEL
OVCAR-3 = system: OVCAR-3
SNB-75 = system: SNB-75
SK-MEL-2 = system: SK-MEL-2
SW-620 = system: SW-620
NCI-H226 = system: NCI-H226
IGROV-1 = system: IGROV-1
SK-OV-3 = system: SK-OV-3
ACHN = system: ACHN
OVCAR-8 = system: OVCAR-8
HCC 2998 = system: HCC 2998
KM12 = system: KM12
SK-MEL-28 = system: SK-MEL-28
HOP-92 = system: HOP-92
OVCAR-4 = system: OVCAR-4
HOP-62 = system: HOP-62
M14 = system: M14
HOP-18 = system: HOP-18
K562 = system: K562
LXFL 529 = system: LXFL 529
RPMI-8226 = system: RPMI-8226
NCI/ADR-RES = system: NCI/ADR-RES
MCF7 = system: MCF7

Nc1nc(N)c2ncn(CCOC(c3ccccc3)P(=O)(O)O)c2n1 (stereo unspecified)
GI50 (KM-20L2): > 100 µM (inactive)
GI50 (NCI-H522): > 100 µM (inactive)
GI50 (XF498): > 100 µM (inactive)
GI50 (OVCAR-5): > 100 µM (inactive)
GI50 (UACC-62): > 100 µM (inactive)
GI50 (HCT-15): > 100 µM
GI50 (COLO 205): > 100 µM (inactive)
GI50 (SF-295): > 100 µM (inactive)
GI50 (SN12C): > 100 µM (inactive)
GI50 (NCI-H23): > 100 µM (inactive)
GI50 (HCT-116): > 100 µM (inactive)
GI50 (RXF 393): > 100 µM (inactive)
GI50 (EKVX): > 100 µM (inactive)
GI50 (DLD-1): > 100 µM (inactive)
GI50 (UO-31): > 100 µM (inactive)
GI50 (HT-29): > 100 µM (inactive)
GI50 (HL-60): > 100 µM (inactive)
GI50 (CAKI-1): > 100 µM (inactive)
GI50 (CCRF-CEM): > 100 µM (inactive)
GI50 (Malme-3M): > 100 µM (inactive)
GI50 (786-0): > 100 µM (inactive)
GI50 (DMS-114): > 100 µM (inactive)
GI50 (SF-268): > 100 µM (inactive)
GI50 (UACC-257): > 100 µM (inactive)
GI50 (LOX IMVI): > 100 µM (inactive)
GI50 (A549): > 100 µM (inactive)
GI50 (SF-539): > 100 µM (inactive)
GI50 (A498): > 100 µM (inactive)
GI50 (SK-MEL-5): > 100 µM (inactive)
GI50 (SR): > 100 µM (inactive)
GI50 (SNB-78): > 100 µM (inactive)
GI50 (U-251): > 100 µM (inactive)
GI50 (DMS-273): > 100 µM (inactive)
GI50 (NCI-H460): > 100 µM (inactive)
GI50 (SNB-19): > 100 µM (inactive)
GI50 (MOLT-4): > 100 µM (inactive)
GI50 (TK-10): > 100 µM (inactive)
GI50 (M19-MEL): > 100 µM (inactive)
GI50 (OVCAR-3): > 100 µM (inactive)
GI50 (SNB-75): > 100 µM (inactive)
GI50 (SK-MEL-2): > 100 µM (inactive)
GI50 (SW-620): > 100 µM (inactive)
GI50 (NCI-H226): > 100 µM (inactive)
GI50 (IGROV-1): > 100 µM (inactive)
GI50 (SK-OV-3): > 100 µM (inactive)
GI50 (ACHN): > 100 µM (inactive)
GI50 (OVCAR-8): > 100 µM (inactive)
GI50 (HCC 2998): > 100 µM (inactive)
GI50 (KM12): > 100 µM (inactive)
GI50 (SK-MEL-28): > 100 µM (inactive)

CC1=C(c2cc(C(=O)Nc3cccc(C(F)(F)F)c3)ncn2)Sc2ccccc2N1
GI50 (HOP-92): > 100 µM (inactive)
GI50 (KM-20L2): > 100 µM (inactive)
GI50 (NCI-H522): > 100 µM (inactive)
GI50 (XF498): > 100 µM (inactive)
GI50 (OVCAR-4): > 100 µM (inactive)
GI50 (HOP-62): > 100 µM (inactive)
GI50 (UACC-62): > 100 µM (inactive)
GI50 (M14): > 100 µM (inactive)
GI50 (HOP-18): > 100 µM (inactive)
GI50 (HCT-15): > 100 µM
GI50 (COLO 205): > 100 µM (inactive)
GI50 (SF-295): > 100 µM (inactive)
GI50 (SN12C): > 100 µM (inactive)
GI50 (K562): > 100 µM (inactive)
GI50 (NCI-H23): > 100 µM (inactive)
GI50 (HCT-116): > 100 µM (inactive)
GI50 (LXFL 529): > 100 µM (inactive)
GI50 (EKVX): > 100 µM (inactive)
GI50 (DLD-1): > 100 µM (inactive)
GI50 (UO-31): > 100 µM (inactive)
GI50 (HT-29): > 100 µM (inactive)
GI50 (HL-60): > 100 µM (inactive)
GI50 (CAKI-1): > 100 µM (inactive)
GI50 (CCRF-CEM): > 100 µM (inactive)
GI50 (Malme-3M): > 100 µM (inactive)
GI50 (786-0): > 100 µM (inactive)
GI50 (DMS-114): > 100 µM (inactive)
GI50 (SF-268): > 100 µM (inactive)
GI50 (UACC-257): > 100 µM (inactive)
GI50 (A549): > 100 µM (inactive)
GI50 (SF-539): > 100 µM (inactive)
GI50 (A498): > 100 µM (inactive)
GI50 (SK-MEL-5): > 100 µM (inactive)
GI50 (SR): > 100 µM (inactive)
GI50 (U-251): > 100 µM (inactive)
GI50 (DMS-273): > 100 µM (inactive)
GI50 (NCI-H460): > 100 µM (inactive)
GI50 (SNB-19): > 100 µM (inactive)
GI50 (MOLT-4): > 100 µM (inactive)
GI50 (TK-10): > 100 µM (inactive)
GI50 (M19-MEL): > 100 µM (inactive)
GI50 (OVCAR-3): > 100 µM (inactive)
GI50 (SNB-75): 58.9 µM (inactive)
GI50 (SK-MEL-2): > 100 µM (inactive)
GI50 (RPMI-8226): > 100 µM (inactive)
GI50 (SW-620): > 100 µM (inactive)
GI50 (NCI-H226): > 100 µM (inactive)
GI50 (IGROV-1): > 100 µM (inactive)
GI50 (SK-OV-3): > 100 µM (inactive)
GI50 (ACHN): > 100 µM (inactive)
GI50 (OVCAR-8): > 100 µM (inactive)
GI50 (KM12): > 100 µM (inactive)
GI50 (SK-MEL-28): > 100 µM (inactive)

C=CCn1c2ccccc2c2c(C)c3cnccc3c(C)c21
GI50 (HOP-92): 1.92 µM (inactive)
GI50 (KM-20L2): 6.75 µM (inactive)
GI50 (NCI-H522): 5.52 µM (inactive)
GI50 (XF498): 12.4 µM (inactive)
GI50 (OVCAR-4): 8.97 µM (inactive)
GI50 (HOP-62): 9.98 µM (inactive)
GI50 (OVCAR-5): 6.38 µM (inactive)
GI50 (UACC-62): 9.35 µM (inactive)
GI50 (HOP-18): > 125 µM (inactive)
GI50 (HCT-15): 6.92 µM
GI50 (COLO 205): 6.4 µM (inactive)
GI50 (SF-295): 9.86 µM (inactive)
GI50 (SN12C): 9.1 µM (inactive)
GI50 (K562): 5.6 µM (inactive)
GI50 (NCI/ADR-RES): 4.91 µM (inactive)
GI50 (NCI-H23): 6.95 µM (inactive)
GI50 (HCT-116): 4.48 µM (inactive)
GI50 (RXF 393): 4.27 µM (inactive)
GI50 (EKVX): 12.1 µM (inactive)
GI50 (DLD-1): 7.08 µM (inactive)
GI50 (UO-31): 4.39 µM (inactive)
GI50 (HT-29): 8.93 µM (inactive)
GI50 (HL-60): 3.17 µM (inactive)
GI50 (CAKI-1): 2.06 µM (inactive)
GI50 (CCRF-CEM): 4.12 µM (inactive)
GI50 (Malme-3M): 13.8 µM (inactive)
GI50 (SF-268): 7.98 µM (inactive)
GI50 (UACC-257): 7.23 µM (inactive)
GI50 (LOX IMVI): 6.82 µM (inactive)
GI50 (A549): 9.77 µM (inactive)
GI50 (SF-539): 10.7 µM (inactive)
GI50 (A498): 6.34 µM (inactive)
GI50 (SK-MEL-5): 6.82 µM (inactive)
GI50 (SNB-78): 22.3 µM (inactive)
GI50 (U-251): 11.2 µM (inactive)
GI50 (DMS-273): 6.92 µM (inactive)
GI50 (NCI-H460): 4.47 µM (inactive)
GI50 (SNB-19): 12.9 µM (inactive)
GI50 (MOLT-4): 2.95 µM (inactive)
GI50 (M19-MEL): 9.23 µM (inactive)
GI50 (OVCAR-3): 11.1 µM (inactive)
GI50 (SNB-75): 13.2 µM (inactive)
GI50 (SK-MEL-2): 15.8 µM (inactive)
GI50 (MCF7): 5.52 µM (inactive)
GI50 (RPMI-8226): 3.61 µM (inactive)
GI50 (SW-620): 6.61 µM (inactive)
GI50 (NCI-H226): 5.16 µM (inactive)
GI50 (IGROV-1): 8.75 µM (inactive)
GI50 (SK-OV-3): 5.9 µM (inactive)
GI50 (OVCAR-8): 5.53 µM (inactive)
GI50 (HCC 2998): 20.4 µM (inactive)
GI50 (KM12): 4.38 µM (inactive)
GI50 (SK-MEL-28): 14.8 µM (inactive)
